Data as given in the supplement of paper PMC13380429.

Legend:
Conditions in all cases: 72 h
HepG2 [1] = assay: cell viability relative to DMSO; higher = less toxic
Calu-3 [2] = assay: as above
Vero E6 [3] = assay: as above
U2OS [4] = assay: as above
Caco-2 [5] = assay: as above
HepG2 [6] = assay: relative viability EC50 (midpoint between 100% and the lowest measured viability); higher = less toxic
Calu-3 [7] = assay: as above
Vero E6 [8] = assay: as above
U2OS [9] = assay: as above
Caco-2 [10] = assay: as above
HepG2 [11] = assay: drug sensitivity score (DSS) for viability; higher = more toxic; extreme values may be limits of the assay
Calu-3 [12] = assay: as above
Vero E6 [13] = assay: as above
U2OS [14] = assay: as above
Caco-2 [15] = assay: as above

| SMILES | cell viability (HepG2 [1]; 1 nM) [%] | cell viability (HepG2 [1]; 10 nM) [%] | cell viability (HepG2 [1]; 100 nM) [%] | cell viability (HepG2 [1]; 1000 nM) [%] | cell viability (HepG2 [1]; 10000 nM) [%] | cell viability (Calu-3 [2]; 1 nM) [%] | cell viability (Calu-3 [2]; 10 nM) [%] | cell viability (Calu-3 [2]; 100 nM) [%] | cell viability (Calu-3 [2]; 1000 nM) [%] | cell viability (Calu-3 [2]; 10000 nM) [%] | cell viability (Vero E6 [3]; 1 nM) [%] | cell viability (Vero E6 [3]; 10 nM) [%] | cell viability (Vero E6 [3]; 100 nM) [%] | cell viability (Vero E6 [3]; 1000 nM) [%] | cell viability (Vero E6 [3]; 10000 nM) [%] | cell viability (U2OS [4]; 1 nM) [%] | cell viability (U2OS [4]; 10 nM) [%] | cell viability (U2OS [4]; 100 nM) [%] | cell viability (U2OS [4]; 1000 nM) [%] | cell viability (U2OS [4]; 10000 nM) [%] | cell viability (Caco-2 [5]; 1 nM) [%] | cell viability (Caco-2 [5]; 10 nM) [%] | cell viability (Caco-2 [5]; 100 nM) [%] | cell viability (Caco-2 [5]; 1000 nM) [%] | cell viability (Caco-2 [5]; 10000 nM) [%] | relative viability EC50 (HepG2 [6]) [µM] | relative viability EC50 (Calu-3 [7]) [µM] | relative viability EC50 (Vero E6 [8]) [µM] | relative viability EC50 (U2OS [9]) [µM] | relative viability EC50 (Caco-2 [10]) [µM] | drug sensitivity score (HepG2 [11]) | drug sensitivity score (Calu-3 [12]) | drug sensitivity score (Vero E6 [13]) | drug sensitivity score (U2OS [14]) | drug sensitivity score (Caco-2 [15]) |
| --- | --- | --- | --- | --- | --- | --- | --- | --- | --- | --- | --- | --- | --- | --- | --- | --- | --- | --- | --- | --- | --- | --- | --- | --- | --- | --- | --- | --- | --- | --- | --- | --- | --- | --- | --- |
| CN(CCOc1ccc(NS(C)(=O)=O)cc1)CCc1ccc(NS(C)(=O)=O)cc1 [dofetilide] | 100 | 102 | 89.5 | 117 | 118 | 111 | 90.4 | 101 | 98.6 | 104 | 92.6 | 104 | 90.2 | 98.1 | 110 | 100 | 102 | 102 | 96.6 | 97 | 91.1 | 99.9 | 99.1 | 97.1 | 102 | > 10 | > 10 | > 10 | > 10 | > 10 | 0 | 0 | 0 | 0 | 0 |
| COc1ccc(Nc2ncnc3ccc(OC)cc23)cc1 | 106 | 98.3 | 93.5 | 93 | 83 | 93.9 | 108 | 95.4 | 89.6 | 77.5 | 102 | 106 | 99.6 | 100 | 85.2 | 101 | 102 | 103 | 99 | 106 | 105 | 102 | 101 | 99.5 | 91.3 | > 10 | > 10 | > 10 | > 10 | > 10 | 0.6 | 1.5 | 0.2 | 0 | 0 |
| CN(C)Cc1c(C(=O)NCCOc2ccc(C(=O)NO)cc2)oc2ccccc12 | 98.9 | 92.7 | 76.5 | 11.4 | 0.1 | 95.3 | 93.2 | 73.5 | 31.9 | 8.2 | 97.4 | 96.2 | 95.7 | 38.2 | -0.1 | 96.9 | 101 | 82.4 | 15.8 | 1.3 | 90.2 | 101 | 89.2 | 23.6 | 1.4 | 0.231 | 0.276 | 0.738 | 0.292 | 0.425 | 19 | 16.1 | 13 | 17.6 | 15.6 |
| CN1CCC(=C2c3ccccc3CCc3sccc32)CC1 [pizotifen] | 96.2 | 101 | 99.1 | 109 | 101 | 96 | 88.7 | 102 | 91.3 | 98.2 | 98.3 | 98.6 | 97.9 | 100 | 103 | 94.6 | 95.6 | 101 | 94.4 | 94.6 | 97.6 | 104 | 101 | 107 | 99.2 | > 10 | > 10 | > 10 | > 10 | > 10 | 0 | 0 | 0 | 0 | 0 |
| CC(C)(C)NCC(O)c1cc(O)cc(O)c1 (stereo not given) [TERBUTALINE HEMISULFATE] | 109 | 102 | 106 | 94.5 | 92.3 | 104 | 106 | 99.7 | 95 | 98.3 | 105 | 101 | 101 | 105 | 98.9 | 102 | 98.6 | 105 | 100 | 106 | 99 | 104 | 88.7 | 91.8 | 98.2 | > 10 | > 10 | > 10 | > 10 | > 10 | 0 | 0 | 0 | 0 | 0.6 |
| O[C@@H]1CCCC[C@H]1N1CCC(c2ccccc2)CC1 (racemic) [vesamicol] | 85.7 | 111 | 102 | 97.1 | 98 | 101 | 106 | 113 | 105 | 97.2 | 94 | 95.6 | 93.3 | 101 | 102 | 95.2 | 96.5 | 102 | 101 | 101 | 95.3 | 83.6 | 99.5 | 92.9 | 95.2 | > 10 | > 10 | > 10 | > 10 | > 10 | 0 | 0 | 0 | 0 | 0 |
| O=C1NC(=O)C(c2ccccc2[N+](=O)[O-])=C1Nc1ccc(O)c(Cl)c1 | 102 | 97.1 | 95.5 | 104 | 100 | 91.4 | 91.9 | 94.4 | 85.9 | 88.9 | 101 | 103 | 98.8 | 105 | 105 | 93.5 | 94.9 | 101 | 103 | 104 | 98.1 | 94.3 | 104 | 95.7 | 107 | > 10 | > 10 | > 10 | > 10 | > 10 | 0 | 0 | 0 | 0 | 0 |
